Experimental findings from US6593342B1, “Pharmaceutical compositions comprising 2-quinolones” (Laboratoire L. Lafon, priority 1998, dated 2003) are described below.

What all share (type): cell-based
In one experiment the test system is A549. As to the kind of experiment: MTT test, A549. Particulars: Homo sapiens, 10^−5 M, 72 hours, control = 100%, mean ± SEM, read-out: average optical density (MTT), percentage relative to control. The procedure, abridged: (§1)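 Cells seeded at 20 000–50 000/ml and allowed 24 h before exposure to compound (10^−5 to 10^−10 M) or solvent for 72 h at 37° C, 5% CO2. Viability measured by MTT reduction (1 mg/ml, 3 h), formazan dissolved in DMSO, read at 570/630 nm. Values are optical density as % of solvent control.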
In general terms: Tetrazolium dyes change colour on reduction, which living cells bring about.

A further experiment has as its system A-427. As to the kind of experiment: MTT test, A-427. To be noted: Homo sapiens, 10^−5 M, 72 hours, control = 100%, mean ± SEM, read-out: average optical density (MTT), percentage relative to control. The gist of the method:
as §1

A further experiment has as its system SW1088. Kind of experiment: MTT test, SW1088. Particulars: Homo sapiens, 10^−5 M, 72 hours, control = 100%, mean ± SEM, read-out: average optical density (MTT), percentage relative to control. The gist of the method:
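SW1088 astrocytoma cells, seeded 24 h, then exposed to compound (10^−5 to 10^−10 M) for 72 h at 37 °C in MEM with 5% FCS. Viability by MTT reduction (1 mg/ml, 3 h), formazan dissolved in DMSO, absorbance at 570/630 nm. Expressed as % of solvent-control optical density.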

In a further experiment the test system is colorectal line HT-29. As to the kind of experiment: Clonogenic test (soft agar colony growth), HT-29. Particulars: 21 days, control = 100%, mean ± SEM. The source says:
1—Interaction (Stimulation or Inhibition of Proliferation) With the Generation of Clonogenic Cells (Clonogenic Test)
The test used is that described by Hamburger et al. (Science, 1977; 197, 461-463) and Salmon et al. (New England J. Med., 298, 1321-1327). A cell is considered clonogenic if it has the capacity to proliferate and to give rise to a cell colony. “Human tumor stem cells” are the cells which are the source of the neoplastic cells which constitute a given tumor. These tumor stem cells are responsible for the relapse processes which may be observed after surgical resection of primary tumors and are also responsible for the formation of metastases. In a tumor or a tumor cell line, these clonogenic stem cells differ from the other cells of the tumor or from the neoplastic cell line under consideration in that they conserve their capacity to proliferate in the absence of any solid support.
In this test, the tumor cells are cultured on a semi-solid support consisting of agar. […] In a tumor cell population, cultured on such a support, it is these clonogenic cells (associated with an unlimited number of cell divisions and whose proliferation is referred to by M. I. Dawson as “anchorage-independent [clonal] growth”) which are capable of growing. The percentage of these clonogenic cells in a tumor or a cell line ranges between 0.1% and 0.001%.
The influence of the compounds of formulae (I) and (Ia) on the growth of the cell colonies obtained by culturing, for example, the mammalian tumor lines MCF7 and MXT and the colorectal line HT-29 on the semi-liquid culture medium known as “soft agar” was measured. On such a medium, only the clonogenic cells referred to by M. I. Dawson as “anchorage-independent (clonal) cells” survive and grow. The growth of these cells in such a “non-adherent” mode bears witness to their degree of tumorigenicity. The inhibition of the growth of the size of a tumor in which a larger number of clonogenic cells has developed then becomes the evidence of reinforced cytotoxic activity.
Conversely, this test can also reveal that a compound is capable of inhibiting the generation/proliferation of clonogenic cells, thus making the tumor less able to grow and thus reducing the population of tumor cells.
The tumor cell lines studied are maintained in culture in 25 cm^2 falcon dishes. They are then trypsinized and the cells are fully dissociated from each other. The percentage of live cells is determined after staining with trypan blue. A cell suspension at a concentration of from 5·10^4 to 15·10^4 cells/ml (depending on the cell type under consideration) is prepared in a 0.3% agar solution. Next, 200 μl of this suspension are inoculated in Petri dishes 35 mm in diameter, in which are placed 3 ml of a base layer consisting of a 0.5% agar solution. The 200 μl of cell suspension are in turn covered with 1.8 ml of an upper layer consisting of a 0.3% agar solution. The dishes are then placed in an incubator at 37° C., 5% CO2 and 70% humidity until the treatment. This treatment is carried out about 1 to 2 hours after the inoculation. The test compounds are prepared at a concentration 100 times greater than the desired concentration and 50 μl of these treating solutions are placed over the upper layer of agar in the corresponding dishes. In the present study, the final concentration of the test products is 10^−5, 10^−7 and 10^−9 M. The dishes are then kept in an incubator for 21 days. On the 21st day the dishes are treated by depositing on the upper layer 100 μl of a 1 mg/ml solution of MTT (3-(4,5-dimethylthiazol-2-yl)-2,5-diphenyltetrazolinium bromide prepared with RPMI 1640 medium) for 3 h at 37° C. After this period, the cell colonies are fixed by adding 2 ml of formalin per dish. After fixing for 24 hours, the formalin is evaporated off and the number of stained cell colonies, thus consisting of metabolically active cells, and whose surface area is greater than 100 μm^2, is determined using an inverted microscope. […]

Structures are written as SMILES.

Consider `COc1ccc(-c2cc3c(OC)cc(OC)cc3[nH]c2=O)cc1` [CRL8246, 5,7-Dimethoxy-3-(4-methoxyphenyl)-1,2-dihydro-2-quinolinone], for which the viability at 10 µM in the experiment with A549 was 113 ± 2.1%; in the experiment with A-427, 101 ± 0.9%; with SW1088, 108 ± 1.1%. Further, the “average number of clones of clonogenic cells, percentage relative to control” value (from here on “average number … percentage relative to control”) with colorectal line HT-29 (10^−5 M) worked out at 70.9 ± 2.8%; with colorectal line HT-29 (10^−7 M), 103.3 ± 3.6%; with colorectal line HT-29 (10^−9 M), 104 ± 2.7%.

As to `COc1ccc(-c2cc3c(OC)cc(OC)cc3n(CCC#N)c2=O)cc1` [CRL8247, 3-[5,7-Dimethoxy-3-(4-methoxyphenyl)-2-oxo-1,2-dihydro-1-quinolinyl]propanenitrile], the viability at 10 µM came out at 81.3 ± 1.9% in the experiment on A549, 57 ± 1.5% with A-427 and 85.8 ± 3.6% in the experiment on SW1088. In addition, the “average number … percentage relative to control” value is 72.7 ± 3.6% with colorectal line HT-29 (10^−5 M), 98.3 ± 4.9% in the experiment with colorectal line HT-29 (10^−7 M) and 104.5 ± 2.7% in the experiment with colorectal line HT-29 (10^−9 M).

On to `COc1ccc(-c2cc3c(OC)cc(OC)cc3n(CCc3nnn[nH]3)c2=O)cc1` [CRL8256, 1-[2-(1H-1,2,3,4-Tetrazol-5-yl)ethyl]-5,7-dimethoxy-3-(4-methoxyphenyl)-1,2-dihydro-2-quinolinone], for which the viability at 10 µM with A549 was found to be 56.5 ± 3.7%; with A-427 it was 81.1 ± 2.9%; in the experiment on SW1088 it was 72.1 ± 3.3%. Also, the “average number … percentage relative to control” value is on record as 97.1 ± 4.3% in the experiment on colorectal line HT-29 (10^−5 M), 100.5 ± 4.1% in the experiment on colorectal line HT-29 (10^−7 M) and 107.5 ± 3.7% in the experiment with colorectal line HT-29 (10^−9 M).

`CCN(CC)C(=O)CCn1c(=O)c(-c2ccc(OC)cc2)cc2c(OC)cc(OC)cc21` [CRL8283, N,N-Diethyl-3-[5,7-dimethoxy-3-(4-methoxy-phenyl)-2-oxo-1,2-dihydro-1-quinolinyl]propanamide]: the viability at 10 µM with A549 is 63.6 ± 4.2%; in the experiment with A-427, 73.1 ± 1.7%; in the experiment on SW1088 it was 84.7 ± 3.1%. Also, the “average number … percentage relative to control” value with colorectal line HT-29 (10^−5 M) is 88.9 ± 0.2%; in the experiment with colorectal line HT-29 (10^−7 M) it was 90.9 ± 3.1%; in the experiment with colorectal line HT-29 (10^−9 M), 106.1 ± 1.4%.

Consider `CCN(CC)C(=O)Cn1c(=O)c(-c2ccc(OC)cc2)cc2c(OC)cc(OC)cc21` [CRL8315, N,N-Diethyl-2-[5,7-dimethoxy-3-(4-methoxy-phenyl)-2-oxo-1,2-dihydro-1-quinolinyl]acetamide], for which the results for the viability at 10 µM in the experiment on A549, with A-427 and with SW1088 were 76.1 ± 2.4%, 92.6 ± 2.1% and 89.1 ± 0.6%, respectively. In addition, the “average number … percentage relative to control” value turned out to be 103.5 ± 4.5% with colorectal line HT-29 (10^−5 M), 111.9 ± 5.4% with colorectal line HT-29 (10^−7 M) and 112.9 ± 2.4% with colorectal line HT-29 (10^−9 M).

Consider `COc1ccc(-c2cc3c(OC)cc(OC)cc3n(CCN(C)C)c2=O)cc1` [CRL8316, 1-[2-(Dimethylamino)ethyl]-5,7-dimethoxy-3-(4-methoxyphenyl)-1,2-dihydro-2-quinolinone], for which the results for the viability at 10 µM with A549, in the experiment with A-427 and in the experiment on SW1088 were 84.2 ± 1.9%, 79.1 ± 4.8% and 107 ± 2%, respectively. Also, the entries for the “average number … percentage relative to control” value in the experiment on colorectal line HT-29 (10^−5 M), in the experiment with colorectal line HT-29 (10^−7 M) and in the experiment with colorectal line HT-29 (10^−9 M) were 50.6 ± 1.8%, 80.1 ± 2.9% and 101.6 ± 3.2%, respectively.
